≈ marks a conversion by molar mass, not a printed value. Like-named read-outs stand apart in the source and are kept apart here.
Legend:
[1] = test system: E. coli BW25113 ΔtolC; assay: MIC, microdilution in 96-well plates; details: E. coli BW25113 ΔtolC (parent strain)
[2] = test system: E. coli BW25113 ΔtolC cipR isolate GyrA Ser83Leu; assay: MIC against ciprofloxacin-resistant mutant; details: cipR isolate GyrA Ser83Leu
Experimental: (§2) A microdilution method in 96-well plates was used and the MIC protocol established by the Clinical Laboratory Standards Institute was followed. From a growing subculture, a 1:10000 inoculum of each strain in Luria-Bertani media was prepared and aliquoted 100 μL in 4 columns of wells, except for the top row wells, which contained 200 μL of inoculum. […] The liquid in each of wells was mixed with a multi-channel pipet and 100 μL was transferred to the next well and mixed. The 2-fold dilution was continued down the 96-well plate until 100 μL was left, which was discarded. The plates were incubated at 37° C. with shaking for 16-18 hours. The MIC was determined as the lowest concentration that inhibited growth and had no turbidity by visual inspection.

[3] = test system: E. coli BW25113 ΔtolC cipR isolate GyrA Asp87Gly; assay: MIC against ciprofloxacin-resistant mutant; details: cipR isolate GyrA Asp87Gly
Experimental: as §2

[4] = test system: E. coli BW25113 ΔtolC cipR isolate GyrA Asp87Tyr; assay: MIC against ciprofloxacin-resistant mutant; details: cipR isolate GyrA Asp87Tyr
Experimental: as §2

[5] = test system: E. coli BW25113 ΔtolC cipR isolate GyrB Ser464Phe; assay: MIC against ciprofloxacin-resistant mutant; details: cipR isolate GyrB Ser464Phe
Experimental: as §2

[6] = test system: ciprofloxacin resistant strains of E. coli; assay: MIC against ciprofloxacin resistant strains compared to parent strain; details: ratio to MIC of parent strain E. coli BW25113 ΔtolC
Experimental: as §2

[7] = test system: E. coli BW25113 ΔtolC gyrR isolate GyrA Pro35Thr; assay: MIC against gyramide-resistant mutant; details: gyrR isolate GyrA Pro35Thr
Experimental: as §2

[8] = test system: E. coli BW25113 ΔtolC gyrR isolate GyrA Ser97Pro; assay: MIC against gyramide-resistant mutant; details: gyrR isolate GyrA Ser97Pro
Experimental: as §2

[9] = test system: E. coli BW25113 ΔtolC gyrR isolate GyrA Phe96Leu; assay: MIC against gyramide-resistant mutant; details: gyrR isolate GyrA Phe96Leu
Experimental: as §2

[10] = test system: E. coli BW25113 ΔtolC gyrR isolate GyrA His45Tyr; assay: MIC against gyramide-resistant mutant; details: gyrR isolate GyrA His45Tyr
Experimental: as §2

[11] = test system: E. coli BW25113 ΔtolC gyrR isolate GyrB Thr508Met; assay: MIC against gyramide-resistant mutant; details: gyrR isolate GyrB Thr508Met
Experimental: as §2

[12] = test system: Acinetobacter baumannii; assay: MIC, microdilution in 96-well plates; type: cell-based
In short: (§1)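 CLSI microdilution, LB, 1:10000 inoculum of actively growing culture; 2-fold dilution series in triplicate, DMSO control lane; 37° C., shaking, 16-18 h; endpoint = no visible growth.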

[13] = test system: E. coli BW25113; assay: MIC, microdilution in 96-well plates; type: cell-based; details: Escherichia coli, read-out: MIC
In short: as §1

[14] = test system: Edwardsiella tarda; assay: MIC, microdilution in 96-well plates; type: cell-based
In short: as §1

[15] = test system: Enterobacter aerogenes; assay: MIC, microdilution in 96-well plates; type: cell-based; details: Klebsiella aerogenes
In short: as §1

[16] = test system: Pseudomonas aeruginosa; assay: MIC, microdilution in 96-well plates; type: cell-based
In short: as §1

[17] = test system: E. coli JW5503 (deltolC); assay: MIC, 20-strain panel; type: cell-based; details: Escherichia coli
In short: as §1

[18] = test system: E. coli MG1655; assay: MIC, 20-strain panel; type: cell-based; details: Escherichia coli, read-out: MIC
In short: as §1

[19] = test system: Klebsiella pneumoniae subsp. pneumoniae; assay: MIC, 20-strain panel; type: cell-based
In short: as §1

[20] = test system: Morganella morganii subsp. morganii; assay: MIC, 20-strain panel; type: cell-based
In short: as §1

[21] = test system: Salmonella enterica subsp. enterica typhimurium; assay: MIC, 20-strain panel; type: cell-based
In short: as §1

[22] = test system: Shigella flexneri; assay: MIC, 20-strain panel; type: cell-based
In short: as §1

[23] = test system: Staphylococcus aureus subsp. aureus; assay: MIC, 20-strain panel; type: cell-based; details: read-out: MIC
In short: as §1

[24] = test system: Staphylococcus epidermidis; assay: MIC, 20-strain panel; type: cell-based
In short: as §1

[25] = test system: Staphylococcus saprophyticus subsp. saprophyticus; assay: MIC, 20-strain panel; type: cell-based
In short: as §1

[26] = test system: Streptococcus agalactiae; assay: MIC, 20-strain panel; type: cell-based
In short: as §1

[27] = test system: Streptococcus pyogenes; assay: MIC, 20-strain panel; type: cell-based
In short: as §1

[28] = test system: Bacillus cereus; assay: MIC, 20-strain panel; type: cell-based
In short: as §1

[29] = test system: Bacillus subtilis 168; assay: MIC, 20-strain panel; type: cell-based
In short: as §1

[30] = test system: Enterococcus faecalis; assay: MIC, 20-strain panel; type: cell-based; details: Table 7, separate set of experiments
In short: as §1

[31] = test system: Enterococcus faecium; assay: MIC, 20-strain panel; type: cell-based
In short: as §1

[32] = BW25113, E. coli BW25113, Table 7, separate set of experiments
[33] = Table 7, separate set of experiments
[34] = E. coli JW5503 (deltolC), Table 7, separate set of experiments
[35] = MG1655, E. coli MG1655, Table 7, separate set of experiments
[36] = E: Klebsiella pneumoniae subsp. pneumoniae
[37] = F: Salmonella enterica subsp. enterica Typhimurium
[38] = Salmonella enterica subsp. enterica typhimurium, Table 7, separate set of experiments
[39] = H: Staphylococcus aureus subsp. aureus
[40] = Table 7, separate set of experiments, read-out: MIC
[41] = 20-strain screen of Table 6, read-out: MIC

Work on `Cc1ccc(F)cc1S(=O)(=O)NC1CCN(Cc2ccc(-c3ccccc3)cc2)C1` (stereo not shown) [Gyramide C] yielded an MIC ([1]; Table 5) of 2.5 µM (≈ 1.06 µg/mL), an MIC [2] of 2500 nM (≈ 1.06 µg/mL) and an MIC [3] of 5 µM (≈ 2.12 µg/mL). For the same molecule, the MIC [4] was 5 µM (≈ 2.12 µg/mL), the MIC [5] was 10 µM (≈ 4.25 µg/mL) and the “MIC against ciprofloxacin resistant strains compared to the parent strain” value [6] was 1-4 times.
For `Cc1ccc(F)cc1S(=O)(=O)NC1CCN(Cc2ccc(OC(C)C)cc2)C1` (stereo not shown) [Gyramide A], the MIC ([1]; Table 4) was 20 µM (≈ 8.13 µg/mL), the MIC [7] was 320 µM (≈ 130 µg/mL) and the MIC [8] was 320 µM (≈ 130 µg/mL). For the same molecule, the MIC [9] was 320 µM (≈ 130 µg/mL), the MIC [10] was 320 µM (≈ 130 µg/mL) and the MIC [11] was 320 µM (≈ 130 µg/mL).
With `Cc1ccc(C#N)cc1S(=O)(=O)N[C@@H]1CCN(Cc2ccc(OC3CC3)cc2)C1` [Compound 113] the MIC [12] was > 16 µg/mL, the MIC ([13]; BW25113, B: E. coli BW25113) was ~8 µg/mL (≈ 19.4 µM) and the MIC [13, 32] was 8 µg/mL (≈ 19.4 µM). For the same molecule, the MIC ([14]; D: Edwardsiella tarda) was ~8 µg/mL (≈ 19.4 µM), the MIC [14, 33] was 16 µg/mL (≈ 38.9 µM) and the MIC [15] was > 16 µg/mL. The MIC [16] was > 16 µg/mL, the MIC ([17]; C: E. coli JW5503 (deltolC)) was 0.25 µg/mL (≈ 0.607 µM) and the MIC [17, 34] was 0.125 µg/mL (≈ 0.304 µM). For the same molecule, the MIC ([18]; MG1655, A: E. coli MG1655) was ~8 µg/mL (≈ 19.4 µM), the MIC [18, 35] was 16 µg/mL (≈ 38.9 µM) and the MIC [19, 36] was > 8 µg/mL. The MIC ([19]; Klebsiella pneumoniae subsp. pneumoniae, Table 7, separate set of experiments) was > 16 µg/mL, the MIC ([20]; Morganella morganii) was > 16 µg/mL and the MIC [21, 37] was 2 µg/mL (≈ 4.86 µM). It also gave an MIC [21, 38] of 4 µg/mL (≈ 9.72 µM), an MIC ([22]; G: Shigella flexneri) of ~8 µg/mL (≈ 19.4 µM) and an MIC [22, 33] of 8 µg/mL (≈ 19.4 µM). The MIC [23, 39] was > 8 µg/mL, the MIC [24] was > 8 µg/mL and the MIC [25] was > 8 µg/mL. For the same molecule, the MIC [26] was > 8 µg/mL and the MIC [27] was > 8 µg/mL.
With `Cc1ccc(C(F)(F)F)cc1S(=O)(=O)N[C@@H]1CCN(Cc2ccc(OC3CC3)cc2)C1` [Compound 91] the MIC [12, 40] was > 16 µg/mL, the MIC ([13]; BW25113, B: E. coli BW25113) was 8 µg/mL (≈ 17.6 µM) and the MIC [13, 32] was 8 µg/mL (≈ 17.6 µM). For the same molecule, the MIC ([14]; D: Edwardsiella tarda, read-out: MIC) was 8 µg/mL (≈ 17.6 µM), the MIC [14, 40] was 8 µg/mL (≈ 17.6 µM) and the MIC ([15]; Enterobacter aerogenes, Table 7, separate set of experiments, read-out: MIC) was > 16 µg/mL. The MIC [16, 40] was > 16 µg/mL, the MIC [28, 41] was 8 µg/mL (≈ 17.6 µM) and the MIC [28, 33] was 8 µg/mL (≈ 17.6 µM). The MIC [29, 41] was 8 µg/mL (≈ 17.6 µM), the MIC [29, 33] was 8 µg/mL (≈ 17.6 µM) and the MIC ([17]; C: E. coli JW5503 (deltolC)) was < 0.0625 µg/mL. For the same molecule, the MIC [17, 34] was < 0.0078 µg/mL, the MIC ([18]; MG1655, A: E. coli MG1655) was 4 µg/mL (≈ 8.8 µM) and the MIC [18, 35] was 8 µg/mL (≈ 17.6 µM). It also gave an MIC [30] of 16 µg/mL (≈ 35.2 µM), an MIC [31, 41] of 8 µg/mL (≈ 17.6 µM) and an MIC [31, 33] of 8 µg/mL (≈ 17.6 µM). For the same molecule, the MIC ([19]; E: Klebsiella pneumoniae subsp. pneumoniae, read-out: MIC) was > 8 µg/mL, the MIC ([19]; Klebsiella pneumoniae subsp. pneumoniae, Table 7, separate set of experiments, read-out: MIC) was > 16 µg/mL and the MIC ([20]; Morganella morganii subsp. morganii, Table 7, separate set of experiments, read-out: MIC) was > 16 µg/mL. The MIC [21, 37] was 4 µg/mL (≈ 8.8 µM), the MIC [21, 38] was 4 µg/mL (≈ 8.8 µM) and the MIC ([22]; G: Shigella flexneri) was 8 µg/mL (≈ 17.6 µM). For the same molecule, the MIC [22, 33] was 4 µg/mL (≈ 8.8 µM), the MIC [23, 39] was 4 µg/mL (≈ 8.8 µM) and the MIC ([23]; Staphylococcus aureus subsp. aureus, Table 7, separate set of experiments) was 8 µg/mL (≈ 17.6 µM). For the same molecule, the MIC ([24]; J: Staphylococcus epidermidis, read-out: MIC) was 2 µg/mL (≈ 4.4 µM), the MIC [24, 40] was 8 µg/mL (≈ 17.6 µM) and the MIC ([25]; I: Staphylococcus saprophyticus subsp. saprophyticus, read-out: MIC) was 8 µg/mL (≈ 17.6 µM). For the same molecule, the MIC ([25]; Staphylococcus saprophyticus subsp. saprophyticus, Table 7, separate set of experiments, read-out: MIC) was 8 µg/mL (≈ 17.6 µM), the MIC ([26]; K: Streptococcus agalactiae, read-out: MIC) was 8 µg/mL (≈ 17.6 µM) and the MIC [26, 40] was 8 µg/mL (≈ 17.6 µM). The MIC ([27]; L: Streptococcus pyogenes, read-out: MIC) was 4 µg/mL (≈ 8.8 µM) and the MIC [27, 40] was 4 µg/mL (≈ 8.8 µM).
With `N#Cc1cccc(S(=O)(=O)N[C@@H]2CCN(Cc3ccc(OC(F)(F)F)cc3)C2)c1` [Compound 17] the MIC ([13]; BW25113, B: E. coli BW25113) was > 8 µg/mL, the MIC ([14]; D: Edwardsiella tarda) was > 8 µg/mL and the MIC ([17]; C: E. coli JW5503 (deltolC)) was 8 µg/mL (≈ 18.8 µM). The MIC ([18]; MG1655, A: E. coli MG1655) was > 8 µg/mL, the MIC [19, 36] was > 8 µg/mL and the MIC [21, 37] was > 8 µg/mL. The MIC ([22]; G: Shigella flexneri) was > 8 µg/mL, the MIC [23, 39] was > 8 µg/mL and the MIC [24] was > 8 µg/mL. The MIC [25] was > 8 µg/mL, the MIC [26] was > 8 µg/mL and the MIC [27] was > 8 µg/mL.

From patent US10253039B2, “Inhibitors of bacterial DNA gyrase with efficacy against gram-negative bacteria” (priority 2014, dated 2019)
